Legend:
kochia = experiment: Test C postemergence; format: in vivo, Kochia scoparia; conditions: Bassia scoparia, post-emergence
Summary of the method: (§1)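 Plants were kept under greenhouse conditions for 13–15 days following spray. Pre-emergent application went to soil (loam–sand), post-emergent to foliage at 1–4 leaves. Evaluation: visual, percent control against untreated checks.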

velvetleaf [1] = experiment: Test A postemergence; format: in vivo, Abutilon theophrasti; conditions: Abutilon theophrasti, post-emergence, 240 h, 0 to 100 scale where 0 is no effect and 100 is complete control, read-out: Plant response rating, Velvetleaf
Summary of the method: (§2)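 Greenhouse pot test, loam/sand soil. Formulation: non-phytotoxic solvent mix plus surfactant. Pre: directed spray onto soil after sowing. Post: plants at 1–2 leaf, 2–10 cm. Rated visually vs untreated controls at ~10 d, 0 (no effect) to 100 (complete control).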

pigweed [2] = experiment: Test C postemergence; format: in vivo, Amaranthus retroflexus; conditions: Amaranthus retroflexus, post-emergence
Summary of the method: as §1

Italian ryegrass = experiment: Test C postemergence; format: in vivo, Lolium multiflorum; conditions: Lolium multiflorum, post-emergence
Summary of the method: as §1

giant foxtail = experiment: Test C postemergence; format: in vivo, Setaria faberii; conditions: Setaria faberi, post-emergence
Summary of the method: as §1

barnyardgrass = experiment: Test C postemergence; format: in vivo, Echinochloa crus-galli; conditions: Echinochloa crus-galli, post-emergence
Summary of the method: as §1

corn [3] = experiment: Test C postemergence; format: in vivo, Zea mays; conditions: Zea mays, post-emergence
Summary of the method: as §1

waterhemp = experiment: Test C postemergence; format: in vivo, Amaranthus rudis; conditions: Amaranthus tuberculatus, post-emergence
Summary of the method: as §1

morningglory = experiment: Test A postemergence; format: in vivo, Ipomoea spp.; conditions: Ipomoea, post-emergence, 240 h, 0 to 100 scale where 0 is no effect and 100 is complete control, read-out: Plant response rating, Morningglory
Summary of the method: as §2

corn [4] = experiment: Test A postemergence; format: in vivo, Zea mays; conditions: Zea mays, post-emergence, 240 h
Summary of the method: as §2

johnsongrass = experiment: Test C postemergence; format: in vivo, Sorghum halepense
Summary of the method: as §1

large (Lg) crabgrass [5] = experiment: Test A preemergence; format: in vivo, Digitaria sanguinalis; conditions: Digitaria sanguinalis, pre-emergence, 240 h
Summary of the method: as §2

pigweed [6] = experiment: Test A postemergence; format: in vivo, Amaranthus retroflexus; conditions: Amaranthus retroflexus, post-emergence, 0 to 100 scale where 0 is no effect and 100 is complete control, read-out: Plant response rating, Pigweed
Summary of the method: as §2

velvetleaf [7] = experiment: Test A preemergence; format: in vivo, Abutilon theophrasti
Summary of the method: as §2

pigweed [8] = experiment: Test A preemergence; format: in vivo, Amaranthus retroflexus; conditions: Amaranthus retroflexus, pre-emergence
Summary of the method: as §2

large (Lg) crabgrass [9] = experiment: Test A postemergence; format: in vivo, Digitaria sanguinalis; conditions: Digitaria sanguinalis, post-emergence, 240 h
Summary of the method: as §2

soybean = experiment: Test C postemergence; format: in vivo, Glycine max; conditions: Glycine max, post-emergence
Summary of the method: as §1

wild oat = experiment: Test C postemergence; format: in vivo, Avena fatua; conditions: Avena fatua, post-emergence
Summary of the method: as §1

[10] = Postemergence, 31 g ai/ha, scale 0 to 100 (0 no effect, 100 complete control), 13 to 15 days
[11] = Postemergence, 62 g ai/ha, scale 0 to 100 (0 no effect, 100 complete control)
[12] = 125 g ai/ha, 0 to 100 scale where 0 is no effect and 100 is complete control
[13] = 125 g ai/ha, 0 to 100 scale where 0 is no effect and 100 is complete control, read-out: Plant response rating, Crabgrass, Large

FC(F)c1cnn(-c2ccccc2Oc2ncc(Cl)cn2)c1 [Compound 80, 5-chloro-2-[2-[4-(difluoromethyl)-1H-pyrazol-1-yl]phenoxy]pyrimidine]
0%: pest or weed control at 31 g/ha (Italian ryegrass; Postemergence, 31 g ai/ha, scale 0 to 100 (0 no effect, 100 complete control), 13 to 15 days, read-out: Plant response rating, Ryegrass, Italian) | pest or weed control at 16 g/ha (giant foxtail; 16 g ai/ha, postemergence, visual rating, scale 0 to 100 (0 no effect, 100 complete control), 13 to 15 days, read-out: Foxtail, Giant plant response rating) | pest or weed control at 16 g/ha (barnyardgrass; 16 g ai/ha, postemergence, visual rating, scale 0 to 100 (0 no effect, 100 complete control), 13 to 15 days, read-out: Barnyardgrass plant response rating) | plant injury at 16 g/ha (corn [3]; 16 g ai/ha, postemergence, visual rating, scale 0 to 100 (0 no effect, 100 complete control), 13 to 15 days, read-out: Corn plant response rating) | Corn plant response rating (crop injury, 0 = no effect, 100 = complete kill) at 31 g/ha (corn [3]; [10]) | pest or weed control at 31 g/ha (johnsongrass; Sorghum halepense, post-emergence, Postemergence, 31 g ai/ha, scale 0 to 100 (0 no effect, 100 complete control), 13 to 15 days, read-out: Plant response rating, Johnsongrass) | pest or weed control at 125 g/ha (pigweed [8]; 125 g ai/ha, 0 to 100 scale where 0 is no effect and 100 is complete control, read-out: Plant response rating, Pigweed) | pest or weed control at 500 g/ha (pigweed [8]; 240 h, 500 g ai/ha, 0 to 100 scale, 0 no effect, 100 complete control, approx. 10 days, read-out: Pigweed plant response rating) | pest or weed control at 31 g/ha (wild oat; Postemergence, 31 g ai/ha, scale 0 to 100 (0 no effect, 100 complete control), 13 to 15 days, read-out: Plant response rating, Oat, Wild)
65%: pest or weed control at 62 g/ha (pigweed [2]; Postemergence, 62 g ai/ha, scale 0 to 100 (0 no effect, 100 complete control), read-out: Plant response rating, Pigweed) | pest or weed control at 31 g/ha (waterhemp; Postemergence, 31 g ai/ha, scale 0 to 100 (0 no effect, 100 complete control), 13 to 15 days, read-out: Plant response rating, Waterhemp)
95%: pest or weed control at 125 g/ha (kochia; 125 g ai/ha, postemergence, read-out: Plant response rating (0 to 100), Kochia) | pest or weed control at 62 g/ha (kochia; Postemergence, 62 g ai/ha, scale 0 to 100 (0 no effect, 100 complete control), read-out: Plant response rating, Kochia)
0: Johnsongrass plant response rating (johnsongrass; 16 g ai/ha, postemergence, visual rating, scale 0 to 100 (0 no effect, 100 complete control), 13 to 15 days)
60%: pest or weed control at 16 g/ha (kochia; 16 g ai/ha, postemergence, visual rating, scale 0 to 100 (0 no effect, 100 complete control), 13 to 15 days, read-out: Kochia plant response rating) | pest or weed control at 31 g/ha (pigweed [2]; Postemergence, 31 g ai/ha, scale 0 to 100 (0 no effect, 100 complete control), 13 to 15 days, read-out: Plant response rating, Pigweed) | Soybean plant response rating (crop injury, 0-100 scale) at 31 g/ha (soybean; [10])
10%: plant injury at 500 g/ha (corn [4]; 500 g ai/ha, 0 to 100 scale, 0 no effect, 100 complete control, read-out: Plant response rating Corn) | pest or weed control at 125 g/ha (wild oat; 125 g ai/ha, postemergence, read-out: Plant response rating (0 to 100), Oat, Wild)
100%: pest or weed control at 125 g/ha (velvetleaf [1]; 125 g ai/ha) | pest or weed control at 500 g/ha (velvetleaf [1]; 500 g ai/ha) | pest or weed control at 500 g/ha (morningglory; 500 g ai/ha) | pest or weed control at 125 g/ha (large (Lg) crabgrass [5]; [13]) | pest or weed control at 500 g/ha (large (Lg) crabgrass [5]; 500 g ai/ha, 0 to 100 scale, 0 no effect, 100 complete control, approx. 10 days, read-out: Crabgrass, Large plant response rating) | pest or weed control at 125 g/ha (pigweed [6]; 125 g ai/ha) | pest or weed control at 500 g/ha (pigweed [6]; 500 g ai/ha) | pest or weed control at 500 g/ha (large (Lg) crabgrass [9]; 500 g ai/ha, 0 to 100 scale, 0 no effect, 100 complete control, read-out: Plant response rating Crabgrass, Large)
70%: pest or weed control at 62 g/ha (waterhemp; Postemergence, 62 g ai/ha, scale 0 to 100 (0 no effect, 100 complete control), read-out: Plant response rating, Waterhemp) | Corn plant response rating (crop injury, 0 = no effect, 100 = complete kill) at 125 g/ha (corn [4]; [12])
20%: pest or weed control at 62 g/ha (Italian ryegrass; Postemergence, 62 g ai/ha, scale 0 to 100 (0 no effect, 100 complete control), read-out: Plant response rating, Ryegrass, Italian)
80%: pest or weed control at 125 g/ha (large (Lg) crabgrass [9]; [13]) | Soybean plant response rating (crop injury, 0-100 scale) at 125 g/ha (soybean; 125 g ai/ha, postemergence, read-out: Plant response rating (0 to 100), Soybean)
75%: pest or weed control at 125 g/ha (pigweed [2]; 125 g ai/ha, postemergence, read-out: Plant response rating (0 to 100), Pigweed) | Soybean plant response rating (crop injury, 0-100 scale) at 62 g/ha (soybean; [11])
90%: pest or weed control at 31 g/ha (kochia; Postemergence, 31 g ai/ha, scale 0 to 100 (0 no effect, 100 complete control), 13 to 15 days, read-out: Plant response rating, Kochia) | pest or weed control at 125 g/ha (waterhemp; 125 g ai/ha, postemergence, read-out: Plant response rating (0 to 100), Waterhemp) | pest or weed control at 125 g/ha (morningglory; 125 g ai/ha) | pest or weed control at 500 g/ha (velvetleaf [7]; Abutilon theophrasti, pre-emergence, 240 h, 500 g ai/ha, 0 to 100 scale, 0 no effect, 100 complete control, approx. 10 days, read-out: Velvetleaf plant response rating)
80: Plant response rating, Velvetleaf (velvetleaf [7]; [12])
5%: pest or weed control at 125 g/ha (Italian ryegrass; 125 g ai/ha, postemergence, read-out: Plant response rating (0 to 100), Ryegrass, Italian) | pest or weed control at 125 g/ha (giant foxtail; 125 g ai/ha, postemergence, read-out: Plant response rating (0 to 100), Foxtail, Giant) | pest or weed control at 31 g/ha (giant foxtail; Postemergence, 31 g ai/ha, scale 0 to 100 (0 no effect, 100 complete control), 13 to 15 days, read-out: Plant response rating, Foxtail, Giant) | pest or weed control at 62 g/ha (giant foxtail; Postemergence, 62 g ai/ha, scale 0 to 100 (0 no effect, 100 complete control), read-out: Plant response rating, Foxtail, Giant) | pest or weed control at 125 g/ha (barnyardgrass; 125 g ai/ha, postemergence, read-out: Plant response rating (0 to 100), Barnyardgrass) | pest or weed control at 31 g/ha (barnyardgrass; Postemergence, 31 g ai/ha, scale 0 to 100 (0 no effect, 100 complete control), 13 to 15 days, read-out: Plant response rating, Barnyardgrass) | pest or weed control at 62 g/ha (barnyardgrass; Postemergence, 62 g ai/ha, scale 0 to 100 (0 no effect, 100 complete control), read-out: Plant response rating, Barnyardgrass) | plant injury at 125 g/ha (corn [3]; 125 g ai/ha, postemergence, read-out: Plant response rating (0 to 100), Corn) | Corn plant response rating (crop injury, 0 = no effect, 100 = complete kill) at 62 g/ha (corn [3]; [11]) | pest or weed control at 125 g/ha (johnsongrass; Sorghum halepense, post-emergence, 125 g ai/ha, postemergence, read-out: Plant response rating (0 to 100), Johnsongrass) | pest or weed control at 62 g/ha (johnsongrass; Sorghum halepense, post-emergence, Postemergence, 62 g ai/ha, scale 0 to 100 (0 no effect, 100 complete control), read-out: Plant response rating, Johnsongrass) | pest or weed control at 62 g/ha (wild oat; Postemergence, 62 g ai/ha, scale 0 to 100 (0 no effect, 100 complete control), read-out: Plant response rating, Oat, Wild)

— patent US9695155B2, “Herbicidal substituted pyrimidinyloxy benzene compounds” (E. I. DU PONT DE NEMOURS AND COMPANY, priority 2013, dated 2017)
